Assay results from article PMC7956643, “Synthesis of Novel Pyrido[1,2-c]pyrimidine Derivatives with 6-Fluoro-3-(4-piperidynyl)-1,2-benzisoxazole Moiety as Potential SSRI and 5-HT1A Receptor Ligands” (International Journal of Molecular Sciences, 2021).
Marks after values point to notes of the source that are not given here.

Legend:
5-HT2A receptors = target: T1, 5-HT2A receptors (Homo sapiens, UniProt P28223); assay: 5-HT2A radioligand binding assay; settings: [3H]-ketanserin; HEK293 cells, human receptor
T1 construct: expressed in transfected cells
T1 sequence (P28223 whole entry): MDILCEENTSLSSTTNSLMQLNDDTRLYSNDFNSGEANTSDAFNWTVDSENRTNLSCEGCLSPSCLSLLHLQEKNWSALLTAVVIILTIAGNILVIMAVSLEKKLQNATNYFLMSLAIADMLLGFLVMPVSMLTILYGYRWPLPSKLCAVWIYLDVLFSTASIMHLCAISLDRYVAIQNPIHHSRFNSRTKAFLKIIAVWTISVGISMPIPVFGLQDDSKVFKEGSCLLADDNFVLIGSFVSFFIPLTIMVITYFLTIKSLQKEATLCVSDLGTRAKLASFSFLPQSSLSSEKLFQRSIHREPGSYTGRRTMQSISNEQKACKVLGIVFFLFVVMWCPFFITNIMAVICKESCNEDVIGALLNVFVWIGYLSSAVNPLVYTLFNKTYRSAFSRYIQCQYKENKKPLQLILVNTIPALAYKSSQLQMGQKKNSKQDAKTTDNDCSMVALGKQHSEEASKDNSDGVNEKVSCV
Method: In vitro radioligand binding assays for 5-HT2A, 5-HT6, 5-HT7 and D2 receptors were carried out using methods published by Zajdel et al.. For the assays, HEK293 cell cultures stably expressing the investigated human receptors were used. Cell pellets were thawed and homogenized in 20 vol of assay buffer using an Ultra Turrax tissue homogenizer, then centrifuged twice at 35000 g for 20 min at 4 °C, with incubation for 15 min at 37 °C in between. The composition of the assay buffers was as follows: for 5-HT2A receptors—50 mM Tris-HCl, 0.1 mM EDTA, 4 mM MgCl2 and 0.1% ascorbate; for 5-HT6 receptors—50 mM Tris-HCl, 0.5 mM EDTA, 4 mM MgCl2; for 5-HT7 receptors—50 mM Tris-HCl, 4 mM MgCl2, 10 µM pargyline and 0.1% ascorbate; for D2 receptors—50 mM Tris-HCl, 1 mM EDTA, 4 mM MgCl2, 120 mM NaCl, 5 mM KCl, 1.5 mM CaCl2 and 0.1% ascorbate. […] The process of equilibration was terminated by rapid filtration through Unifilter plates with a 96-well cell harvester, and radioactivity retained on the filters was quantified on a Microbeta plate reader (PerkinElmer, USA). For displacement studies, the assay samples contained as radioligands (PerkinElmer): 2 nM [^3H]-ketanserin (spec. act. 53.4 Ci/mmol) for 5-HT2A receptors; 2 nM [^3H]-LSD (spec. act. 83.6 Ci/mmol) for 5-HT6 receptors; 0.6 nM [^3H]-5-CT (spec. act. 39.2 Ci/mmol) for 5-HT7 receptors and [^3H]-raclopride (spec. act. 76.0 Ci/mmol) for D2 receptors. […] Each compound was tested in triplicate at 7–8 concentrations (10^-11-10^-4 M). The inhibition constants (Ki) were calculated from the Cheng–Prusoff equation [46]. Results were expressed as means of at least two separate experiments.

5-HT1A receptor = target: T2, 5-HT1A receptor (Mus musculus, UniProt Q64264); assay: Effect of WAY-100635 on the hypothermia induced by tested compounds; assay type: in vivo, CD-1 mice; settings: mice
T2 construct: from tissue; host or cells: whole animal, male CD-1 mice
T2 sequence (Q64264 1-421): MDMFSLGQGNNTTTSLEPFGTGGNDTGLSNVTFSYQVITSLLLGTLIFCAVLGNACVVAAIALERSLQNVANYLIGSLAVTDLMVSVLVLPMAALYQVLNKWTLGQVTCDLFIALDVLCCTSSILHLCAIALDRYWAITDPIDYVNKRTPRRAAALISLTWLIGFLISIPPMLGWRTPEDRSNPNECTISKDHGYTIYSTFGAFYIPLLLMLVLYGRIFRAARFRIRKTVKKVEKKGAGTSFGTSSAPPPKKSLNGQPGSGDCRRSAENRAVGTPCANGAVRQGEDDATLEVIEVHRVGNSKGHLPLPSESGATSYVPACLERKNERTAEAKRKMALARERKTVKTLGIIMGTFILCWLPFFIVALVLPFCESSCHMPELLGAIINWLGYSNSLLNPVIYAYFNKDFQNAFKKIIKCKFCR
Method: The experiments were performed on male CD-1 mice (23–40 g). The animals were kept at room temperature (21 ± 2 °C) on a natural day-night cycle (March–October) and housed under standard laboratory conditions. They had free access to food and tap water before the experiment. Each experimental group consisted of 6–8 animals/dose. All the animals were used only once. 8-Hydroxy-2-(di-n-propylamino)tetralin hydro-bromide (8-OH-DPAT, Research Biochemical Inc.) was used as aqueous solution. […] Vehicle group was administered as 10% aqueous solution of dimethyl sulphoxide (DMSO). 8-OH-DPAT was injected subcutaneously (sc); 6a and 7g were given intraperitoneally (ip) in a volume of 10 mL/kg/mice. The obtained data were analyzed by Dunnett’s test (one drug administration) or by the Newman–Keuls test (two drugs administrations). Forced swim test: the obtained data was evaluated by one-way analysis of variance (ANOVA) followed by the Dunnett’s multiple comparisons test: p < 0.05 was considered significant.
The results were expressed as a change in body temperature (Δt) with respect to the basal body temperature, as measured at the beginning of the experiment.

SERT protein = target: T3, SERT protein (Rattus norvegicus, UniProt P31652); assay: SERT radioligand binding assay; settings: [3H]-citalopram 1.0 nM; rat cortex tissue
T3 construct: from tissue; host or cells: rat cortex
T3 sequence (P31652 whole entry): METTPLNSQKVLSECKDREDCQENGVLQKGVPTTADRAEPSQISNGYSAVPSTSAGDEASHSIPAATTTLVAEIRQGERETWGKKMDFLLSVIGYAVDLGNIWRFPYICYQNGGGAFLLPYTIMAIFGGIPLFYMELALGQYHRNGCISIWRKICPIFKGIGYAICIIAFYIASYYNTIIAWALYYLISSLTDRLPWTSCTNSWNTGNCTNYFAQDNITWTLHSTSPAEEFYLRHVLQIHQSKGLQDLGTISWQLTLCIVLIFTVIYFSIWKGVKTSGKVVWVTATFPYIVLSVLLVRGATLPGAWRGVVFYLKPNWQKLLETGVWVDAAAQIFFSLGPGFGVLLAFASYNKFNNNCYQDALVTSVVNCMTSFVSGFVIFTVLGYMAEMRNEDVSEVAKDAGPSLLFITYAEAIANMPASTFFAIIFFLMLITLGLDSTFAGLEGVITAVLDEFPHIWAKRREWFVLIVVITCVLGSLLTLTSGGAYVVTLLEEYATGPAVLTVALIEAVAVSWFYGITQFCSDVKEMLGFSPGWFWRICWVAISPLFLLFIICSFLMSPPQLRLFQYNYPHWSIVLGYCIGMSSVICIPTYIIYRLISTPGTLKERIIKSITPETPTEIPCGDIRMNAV
Method: Radioligand binding was performed using rat cortex tissue. All assays were carried out in duplicate. First, 50 µL working solution of the tested compounds, 50 µL [^3H]-citalopram (final concentration 1.0 nM) and 150 µL tissue suspension, prepared in assay buffer (50 mM Tris. pH 7.7; 150 mM NaCl; 5 mM KCl), were transferred to a polypropylene 96-well microplate using 96-wells pipetting station Rainin Liquidator (MettlerToledo). […] The reaction was terminated by rapid filtration through GF/B filter mate presoaked with 0.3% polyethyleneimine for 30 min. Ten rapid washes with 200 µL 50 mM Tris buffer (4 °C, pH 7.7) were performed using an automated harvester system—Harvester-96 MACH III FM (Tomtec). […] Data were fitted to a one-site curve-fitting equation with Prism 6 (GraphPad Software) and Ki values were estimated from the Cheng–Prusoff equation.

Ki (5-HT2A receptors) [nM] | melting point [°C] | Δt ± SEM, body temperature (5-HT1A receptor; WAY-100635 0.1 mg/kg sc 15 min before compound 0.6 mg/kg, 30 min) | Δt ± SEM, body temperature (5-HT1A receptor; WAY-100635 0.1 mg/kg sc 15 min before compound 0.6 mg/kg, 60 min) | Hypothermia induced by compound diminished by WAY-100635 (5-HT1A receptor; WAY-100635 0.1 mg/kg, compound 0.6 mg/kg) [%] | Δt ± SEM, body temperature (5-HT1A receptor; vehicle + compound 0.6 mg/kg, 30 min) | Δt ± SEM, body temperature (5-HT1A receptor; vehicle + compound 0.6 mg/kg, 60 min) | Ki (SERT protein) [nM] | SMILES
17 ± 3 | 132 to 133 | −0.5 ± 0.2 ^b,d °C | −0.4 ± 0.2 ^a,e °C | 50 | −1.0 ± 0.2 ^c °C | −1.2 ± 0.1 ^c °C | 32 ± 3.6 | O=c1c(-c2ccccc2)c2ccccn2c(=O)n1CCCCN1CCC(c2noc3cc(F)ccc23)CC1 [Compound 6a, 4-Phenyl-2-{4-[4-(6-fluoro-1,2-benzoxazol-3-yl)-1-piperidyl]butyl}-pyrido[1,2-c]pyrimidine-1,3-dione]
20 ± 4 | 69 to 74 | – | – | – | – | – | 373 ± 32 | O=c1c(-c2ccccc2Cl)c2ccccn2c(=O)n1CCCCN1CCC(c2noc3cc(F)ccc23)CC1 [Compound 6d, 4-(2-Chlorophenyl)-2-{4-[4-(6-fluoro-1,2-benzoxazol)-1-piperidyl]butyl}-pyrido[1,2-c]pyrimidine-1,3-dione]
